Laboratory results published in ChEMBL document CHEMBL3217438, “Diphenylbutylpiperidine-based cell autophagy inducers: Design, synthesis and SAR studies” (Medchemcomm, 2011).
pEC50: −log10 of the molar value.

test: Induction of autophagy in human H4-LC3 cells assessed as number of spots of LC3-GFP after 4 hrs by DAPI staining; type: functional, cell-based

SMILES	pEC50
O=c1oc2ccccc2n1C1CCN(CCCC(c2ccc(F)cc2)c2ccc(F)cc2)CC1	5.09
O=c1sc2ccccc2n1C1CCN(CCCC(c2ccc(F)cc2)c2ccc(F)cc2)CC1	< 4.30
Fc1ccc(C(CCCN2CCC(n3cnc4ccccc43)CC2)c2ccc(F)cc2)cc1	5.38
O=[N+]([O-])c1ccc2c(cnn2C2CCN(CCCC(c3ccc(F)cc3)c3ccc(F)cc3)CC2)c1	5.35
Fc1ccc(C(CCCN2CCC(n3nnc4ccccc43)CC2)c2ccc(F)cc2)cc1	< 4.30
Fc1ccc(C(CCCN2CCC(N3CCc4ccccc43)CC2)c2ccc(F)cc2)cc1	5.42
Fc1ccc(C(CCCN2CCC(c3c[nH]c4ccccc34)CC2)c2ccc(F)cc2)cc1	5.19
Fc1ccc(C(CCCN2CCC(N3Cc4ccccc4C3)CC2)c2ccc(F)cc2)cc1	5.39
O=C1c2ccccc2C(=O)N1C1CCN(CCCC(c2ccc(F)cc2)c2ccc(F)cc2)CC1	< 4.30
Fc1ccc(C(CCCN2CCC(n3nc4ccccc4n3)CC2)c2ccc(F)cc2)cc1	< 4.30
Fc1ccc(C(CCCN2CCC(c3nc4ccccc4[nH]3)CC2)c2ccc(F)cc2)cc1	5.40
Fc1ccc(C(CCCN2CCC(c3nc4ccccc4o3)CC2)c2ccc(F)cc2)cc1	4.95
Fc1ccc(C(CCCN2CCC(c3nc4ccccc4s3)CC2)c2ccc(F)cc2)cc1	4.97
O=C1NCc2ccccc2N1C1CCN(CCCC(c2ccc(F)cc2)c2ccc(F)cc2)CC1	5.54
O=S1(=O)NCc2ccccc2N1C1CCN(CCCC(c2ccc(F)cc2)c2ccc(F)cc2)CC1	4.99
Fc1ccc(C(CCCN2CCC(N3CCc4ccccc4C3)CC2)c2ccc(F)cc2)cc1	5.22
O=C1Oc2ccccc2CN1C1CCN(CCCC(c2ccc(F)cc2)c2ccc(F)cc2)CC1	5.39

SMILES	pEC50
O=C1Nc2ccccc2CN1C1CCN(CCCC(c2ccc(F)cc2)c2ccc(F)cc2)CC1	5.89
O=S1(=O)Nc2ccccc2CN1C1CCN(CCCC(c2ccc(F)cc2)c2ccc(F)cc2)CC1	4.66
O=c1c2ccccc2nnn1C1CCN(CCCC(c2ccc(F)cc2)c2ccc(F)cc2)CC1	5.11
O=c1[nH]c2ccccc2c(=O)n1C1CCN(CCCC(c2ccc(F)cc2)c2ccc(F)cc2)CC1	5.55
FC(F)(F)c1ccc(C(CCCN2CCC(N3CCc4ccccc43)CC2)c2ccc(C(F)(F)F)cc2)cc1	5.92
FC(F)(F)c1ccc(C(CCCN2CCC(c3c[nH]c4ccccc34)CC2)c2ccc(C(F)(F)F)cc2)cc1	6.35
FC(F)(F)c1ccc(C(CCCN2CCC(N3Cc4ccccc4C3)CC2)c2ccc(C(F)(F)F)cc2)cc1	5.82
FC(F)(F)c1ccc(C(CCCN2CCC(c3nc4ccccc4[nH]3)CC2)c2ccc(C(F)(F)F)cc2)cc1	6.05
N#CC(CCCN1CCC(N2CCc3ccccc32)CC1)(c1ccccc1)c1ccccc1	5.35
N#CC(CCCN1CCC(c2c[nH]c3ccccc23)CC1)(c1ccccc1)c1ccccc1	5.59
N#CC(CCCN1CCC(N2Cc3ccccc3C2)CC1)(c1ccccc1)c1ccccc1	5.15
N#CC(CCCN1CCC(c2nc3ccccc3[nH]2)CC1)(c1ccccc1)c1ccccc1	5.07
Fc1ccc(C(CCCN2CCN(c3nsc4ccccc34)CC2)c2ccc(F)cc2)cc1	5.00
O=C1NC2(CCN(CCCC(c3ccc(F)cc3)c3ccc(F)cc3)CC2)Nc2ccccc21	5.72
Fc1ccc(C(CCCN2CCC(c3noc4cc(F)ccc34)CC2)c2ccc(F)cc2)cc1	< 4.30
O=c1[nH]c2ccccc2n1C1CCN(CCCC(c2ccc(F)cc2)c2ccc(F)cc2)CC1 [PIMOZIDE]	5.27
